Key:
Assay type in all cases: cell-based
[1] = system: Pseudomonas aeruginosa ATCC 15442; assay: AOAC Official Method 961.02 Germicidal Spray Method, bacteria on glass carriers; conditions: for Pseudomonas aeruginosa Growth Rate: 10 min contact
Text: (§1) In this method, a series of glass slides (“carriers”) were inoculated with a representative test organism and the carriers were dried under ambient conditions. The dried organisms on the surface of the carrier were then sequentially treated with the composition of the present disclosure in the form of a spray product and were exposed for a pre-determined exposure time. After exposure, the carriers were sequentially transferred to a liquid subculture medium specifically selected to neutralize the composition of the present disclosure and to recover any surviving test organism. The carriers were incubated and visually examined for the presence or absence of growth. […] Required organisms for a disinfection claim include but are not limited to Staphylococcus aureus, Salmonella choleraesuis and Pseudomonas aeruginosa.
(§2) Method Adapted to the Preparation of Bacteria Cultures from −80° C. Freshly Recovered Stock. […] Added 10 μL of the thawed stock to a tube containing 10 mL synthetic broth and then vortexed to mix. Discarded the rest of cryovial stock. • Incubated the tube at 36 ±1° C. for 24 hours (h). Briefly vortexed the 24 h culture prior to transfer. For this final subculture step, inoculated two 20×150 mm tubes containing 10 mL synthetic broth with […] of the 24 h synthetic broth culture. • Incubated 48 h at 36±1° C. Using a Vortex-style mixer, mixed synthetic broth test cultures 3-4 seconds and let stand 10 minutes at room temperature before continuing. Removed the upper portion of each culture, leaving behind any debris or clumps, and transferred to a sterile tube. Titrated the culture by plating on synthetic agar plates, and diluted to 5×10^8 Colony Forming Units (CFU) per mL.
(§3) High volume screening studies were conducted in some cases where only 4 organism-inoculated carriers were treated at specified concentrations of CTAB. Vortex-mixed the inoculum periodically during inoculation of the carriers. • Immediately spread the inoculum uniformly over the majority of the carrier surface using a sterile loop. […] Covered dish immediately and repeated operation until 64 carriers had been prepared for the test. Once all of the carriers had been inoculated, placed in incubator at 37° C. for 40 minutes until dry.
(§4) • After the test organisms were dried on the surface of the carrier, each carrier was sprayed with the respective disinfection formulae 10 times in 10 seconds at a distance of 30 cm. • Treatment interval was timed. Ten (10) minutes after each carrier had been sprayed by the disinfectant, the excess liquid was removed and the carriers were transferred in a sequentially timed fashion into the culture tubes containing 20 ml neutralizer (Letheen Broth with 0.07% Lecithin/0.5% Tween 80/0.1% Sodium Thiosulfate) to neutralize the disinfectant. […] The percentage of the treated carriers showing growth after 48 hours was recorded.

[2] = system: Staphylococcus aureus ATCC 6538; assay: as above; conditions: 10 min contact
Text: as §1, §2, §3, §4

[3] = system: Salmonella choleraesuis ATCC 10708; assay: as above; conditions: 10 min contact
Protocol: (§5) All experiments were conducted according to the protocol outlined in AOAC Official Method 961.02 (Germicidal Spray Method), which is a carrier-based method used to evaluate disinfection efficacy of aerosol/pump-based spray products and liquid products for registration with regulatory agencies such as the U.S. EPA and Health Canada.
as §1
Method Adapted to the Preparation of Bacteria Cultures from −80° C. Freshly Recovered Stock. […]

[4] = system: Aspergillus niger ATCC 6275; assay: AOAC Official Method 961.02 Germicidal Spray Method, fungal conidia on glass carriers; conditions: 10 min contact
Text: as §1
(§6) The conidiospore suspension was macerated in a tissue grinder. The suspension was filtered through sterile cotton to remove the hyphae and hyphal fragments.
(§7) Vortex-mixed the inoculum periodically during inoculation of the carriers. • Immediately spread the inoculum uniformly over the majority of the carrier surface using a sterile loop. […] High volume screening studies were conducted in some cases where only 4 organism-inoculated carriers were treated at specified concentrations of CTAB. Once all of the carriers had been inoculated, the carriers were placed in an incubator at 37° C. for 40 minutes until completely dry.
(§8) • After drying, each carrier was sprayed with the respective disinfection formulae 10 times in 10 seconds at a distance of 30 cm. • Timed the treatment interval. Ten (10) minutes after each carrier had been exposed to the disinfectant, the excess liquid was removed and the carriers were transferred in a sequentially timed fashion into the culture tubes containing 20 ml neutralization broth (Letheen Broth with 0.07% Lecithin /0.5% Tween 80) to neutralize the disinfectant. • After the carriers were deposited in the respective culture tubes, the tubes were recapped and the cultures were thoroughly resuspended. • Incubated all neutralization tubes at 28 ±1° C. for 14 days. • After 14 days, the cultures within the tubes were examined for growth. The percentage of the treated carriers showing growth was recorded.

[5] = system: Penicillium variable ATCC 32333; assay: as above; conditions: 10 min contact
Text: as §1, §6, §7, §8

[6] = system: Trichophyton mentagrophytes ATCC 9533; assay: as above; conditions: 10 min contact
Text: as §1, §6, §7, §8

[7] = system: select bacteria and fungal organisms; assay: Germicidal spray disinfection, summary over the tested organisms; conditions: 0.01% QAH in CMC; 10-minute contact time
Protocol: as §5
It was expected that if the CTAB was replaced by QAH's of similar structure that the disinfection of selected bacteria and fungal organisms would be similarly achieved. […] In the case of bacteria testing, the experimental procedure was as outlined in Example 1 for disinfection of bacterial cultures. In the case of fungal organisms, the experimental procedure was as outlined in Example 1 for the preparation of fungal cultures.

**Q.** With `CCCCCCCCCCCCCCCC[N+](C)(C)C.[Br-]` [CTAB, cetyltrimethylammonium bromide] as the compound, how does the “Pseudomonas aeruginosa Growth Rate” value ([1]; CTAB 0.0010% in water (no CMC)) read?
**A.** 100%

**Q.** And the “Pseudomonas aeruginosa Growth Rate” value ([1]; CTAB 0.0100% in water (no CMC))?
**A.** 100%

**Q.** What about the “Pseudomonas aeruginosa Growth Rate” value ([1]; CTAB 0.0500% in water (no CMC)) of the same compound?
**A.** 100%

**Q.** What about the “efficacy against Pseudomonas” value ([1]; CTAB on its own in water, 0.05%) of the same compound?
**A.** ineffective

**Q.** And the “Staphylococcus aureus Growth Rate” value ([2]; CTAB 0.0010% in water (no CMC))?
**A.** 100%

**Q.** What about the “Staphylococcus aureus Growth Rate” value ([2]; CTAB 0.0100% in water (no CMC)) of the same compound?
**A.** 100%

**Q.** What about the “Staphylococcus aureus Growth Rate” value ([2]; CTAB 0.0500% in water (no CMC)) of the same compound?
**A.** 40%

**Q.** What about the “Staphylococcus aureus Growth Rate” value ([2]; CTAB 0.1000% in water (no CMC)) of the same compound?
**A.** 40%

**Q.** And the “Salmonella choleraesuis Growth Rate” value ([3]; CTAB 0.0100% in water (no CMC))?
**A.** 100%

**Q.** What about the “Salmonella choleraesuis Growth Rate” value ([3]; CTAB 0.1000% in water (no CMC)) of the same compound?
**A.** 0%

**Q.** And the “Aspergillus niger Growth Rate” value ([4]; CTAB 0.0010% in water (no CMC))?
**A.** 100%

**Q.** What about the “Aspergillus niger Growth Rate” value ([4]; CTAB 0.0100% in water (no CMC)) of the same compound?
**A.** 100%

**Q.** What about the “Aspergillus niger Growth Rate” value ([4]; CTAB 0.0500% in water (no CMC)) of the same compound?
**A.** 100%

**Q.** And the “Aspergillus niger Growth Rate” value ([4]; CTAB 0.1000% in water (no CMC))?
**A.** 100%

**Q.** And the “Penicillium variable Growth Rate” value ([5]; CTAB 0.0010% in water (no CMC))?
**A.** 100%

**Q.** And the “Penicillium variable Growth Rate” value ([5]; CTAB 0.0100% in water (no CMC))?
**A.** 0%

**Q.** And the “Penicillium variable Growth Rate” value ([5]; CTAB 0.0500% in water (no CMC))?
**A.** 0%

**Q.** What about the “Penicillium variable Growth Rate” value ([5]; CTAB 0.1000% in water (no CMC)) of the same compound?
**A.** 0%

**Q.** What about the “Trichophyton mentagrophytes Growth Rate” value ([6]; CTAB 0.0010% in water (no CMC)) of the same compound?
**A.** 0%

**Q.** And the “Trichophyton mentagrophytes Growth Rate” value ([6]; CTAB 0.0100% in water (no CMC))?
**A.** 0%

**Q.** And the “Trichophyton mentagrophytes Growth Rate” value ([6]; CTAB 0.0500% in water (no CMC))?
**A.** 0%

**Q.** How did the “Pseudomonas aeruginosa Growth Rate” value ([1]; CMC + QAH, QAH 0.010%) turn out when `CCCCCCCCCCCCCCCC[N+](C)(C)Cc1ccccc1.[Cl-]` [BDAC, Benzyl-dimethylhexadecylammonium chloride] was run?
**A.** 0%

**Q.** And the “Pseudomonas aeruginosa Growth Rate” value ([1]; CMC + QAH, QAH 0.100%)?
**A.** 0%

**Q.** And the “Pseudomonas aeruginosa Growth Rate” value ([1]; CMC + QAH, QAH 1.000%)?
**A.** 0%

**Q.** What about the “Pseudomonas aeruginosa Growth Rate” value ([1]; Water + QAH, QAH 0.010%) of the same compound?
**A.** 100%

**Q.** And the “Pseudomonas aeruginosa Growth Rate” value ([1]; Water + QAH, QAH 0.100%)?
**A.** 25%

**Q.** And the “Pseudomonas aeruginosa Growth Rate” value ([1]; Water + QAH, QAH 1.000%)?
**A.** 25%

**Q.** What about the “Staphylococcus aureus Growth Rate” value ([2]; CMC + QAH, QAH 0.010%) of the same compound?
**A.** 0%

**Q.** What about the “Staphylococcus aureus Growth Rate” value ([2]; CMC + QAH, QAH 0.100%) of the same compound?
**A.** 0%

**Q.** What about the “Staphylococcus aureus Growth Rate” value ([2]; CMC + QAH, QAH 1.000%) of the same compound?
**A.** 0%

**Q.** And the “Staphylococcus aureus Growth Rate” value ([2]; Water + QAH, QAH 0.010%)?
**A.** 100%

**Q.** And the “Staphylococcus aureus Growth Rate” value ([2]; Water + QAH, QAH 0.100%)?
**A.** 0%

**Q.** And the “Staphylococcus aureus Growth Rate” value ([2]; Water + QAH, QAH 1.000%)?
**A.** 0%

**Q.** What about the “Aspergillus niger Growth Rate” value ([4]; CMC + QAH, QAH 0.010%) of the same compound?
**A.** 100%

**Q.** What about the “Aspergillus niger Growth Rate” value ([4]; CMC + QAH, QAH 0.100%) of the same compound?
**A.** 25%

**Q.** And the “Aspergillus niger Growth Rate” value ([4]; CMC + QAH, QAH 1.000%)?
**A.** 0%

**Q.** And the “Aspergillus niger Growth Rate” value ([4]; Water + QAH, QAH 0.010%)?
**A.** 100%

**Q.** And the “Aspergillus niger Growth Rate” value ([4]; Water + QAH, QAH 0.100%)?
**A.** 75%

**Q.** What about the “Aspergillus niger Growth Rate” value ([4]; Water + QAH, QAH 1.000%) of the same compound?
**A.** 0%

**Q.** What about the “Penicillium variable Growth Rate” value ([5]; CMC + QAH, QAH 0.010%) of the same compound?
**A.** 0%

**Q.** And the “Penicillium variable Growth Rate” value ([5]; CMC + QAH, QAH 0.100%)?
**A.** 0%

**Q.** And the “Penicillium variable Growth Rate” value ([5]; CMC + QAH, QAH 1.000%)?
**A.** 0%

**Q.** And the “Penicillium variable Growth Rate” value ([5]; Water + QAH, QAH 0.010%)?
**A.** 0%

**Q.** And the “Penicillium variable Growth Rate” value ([5]; Water + QAH, QAH 0.100%)?
**A.** 0%

**Q.** And the “Penicillium variable Growth Rate” value ([5]; Water + QAH, QAH 1.000%)?
**A.** 0%

**Q.** What about the “Trichophyton mentagrophytes Growth Rate” value ([6]; CMC + QAH, QAH 0.010%) of the same compound?
**A.** 0%

**Q.** And the “Trichophyton mentagrophytes Growth Rate” value ([6]; CMC + QAH, QAH 0.100%)?
**A.** 0%

**Q.** And the “Trichophyton mentagrophytes Growth Rate” value ([6]; CMC + QAH, QAH 1.000%)?
**A.** 0%

**Q.** What about the “Trichophyton mentagrophytes Growth Rate” value ([6]; Water + QAH, QAH 0.010%) of the same compound?
**A.** 0%

**Q.** What about the “Trichophyton mentagrophytes Growth Rate” value ([6]; Water + QAH, QAH 0.100%) of the same compound?
**A.** 0%

**Q.** What about the “Trichophyton mentagrophytes Growth Rate” value ([6]; Water + QAH, QAH 1.000%) of the same compound?
**A.** 0%

**Q.** And the “effectiveness against the target organisms” value [7]?
**A.** remarkable effectiveness

Source: patent US20200245616A1, “A Disinfectant Composition with Extended Antimicrobial Effects” (Siamons International Inc., priority 2017, published 2020)
